We go through 31 compounds from ChEMBL document CHEMBL1681689, “Discovery of N-methyl-1-(1-phenylcyclohexyl)ethanamine, a novel triple serotonin, norepinephrine and dopamine reuptake inhibitor” (Bioorg Med Chem Lett, 2011).

Series [1] is described as follows: (§1) Half life in human liver microsomes by in vitro metabolic stability assay. Type of series: ADME, Microsome. The settings on record: liver microsomes. For orientation: Liver microsomes are vesicles of endoplasmic reticulum, rich in cytochrome P450 enzymes.
Series [2] can be described thus: Half life in mouse liver microsomes by in vitro metabolic stability assay. The format is ADME, Microsome. The settings on record: for half-life: liver microsomes; for t1/2: microsomes.
The target of series [3] is Sodium-dependent serotonin transporter (Homo sapiens, UniProt P31645). The format is cell-based, LLC-PK1.
Chain of Sodium-dependent serotonin transporter (P31645 whole entry): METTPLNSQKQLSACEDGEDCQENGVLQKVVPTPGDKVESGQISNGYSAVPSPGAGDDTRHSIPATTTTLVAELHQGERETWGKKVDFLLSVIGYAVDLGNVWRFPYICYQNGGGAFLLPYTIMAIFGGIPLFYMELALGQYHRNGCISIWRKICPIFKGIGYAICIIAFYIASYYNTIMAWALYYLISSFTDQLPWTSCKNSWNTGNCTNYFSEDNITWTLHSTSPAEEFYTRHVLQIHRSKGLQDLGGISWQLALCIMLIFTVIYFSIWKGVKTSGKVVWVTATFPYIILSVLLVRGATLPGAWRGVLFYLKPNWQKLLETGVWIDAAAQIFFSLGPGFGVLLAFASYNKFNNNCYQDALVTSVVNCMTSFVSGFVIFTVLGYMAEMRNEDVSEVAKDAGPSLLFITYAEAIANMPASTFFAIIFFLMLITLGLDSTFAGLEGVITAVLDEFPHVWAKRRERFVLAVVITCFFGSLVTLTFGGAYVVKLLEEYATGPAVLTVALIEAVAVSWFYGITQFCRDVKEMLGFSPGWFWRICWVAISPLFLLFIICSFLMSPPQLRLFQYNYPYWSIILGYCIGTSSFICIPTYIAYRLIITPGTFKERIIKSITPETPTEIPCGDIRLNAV
Series [4] deals with Sodium-dependent dopamine transporter (Homo sapiens, UniProt Q01959). The format is cell-based, COS-7.
Chain of Sodium-dependent dopamine transporter (Q01959 whole entry): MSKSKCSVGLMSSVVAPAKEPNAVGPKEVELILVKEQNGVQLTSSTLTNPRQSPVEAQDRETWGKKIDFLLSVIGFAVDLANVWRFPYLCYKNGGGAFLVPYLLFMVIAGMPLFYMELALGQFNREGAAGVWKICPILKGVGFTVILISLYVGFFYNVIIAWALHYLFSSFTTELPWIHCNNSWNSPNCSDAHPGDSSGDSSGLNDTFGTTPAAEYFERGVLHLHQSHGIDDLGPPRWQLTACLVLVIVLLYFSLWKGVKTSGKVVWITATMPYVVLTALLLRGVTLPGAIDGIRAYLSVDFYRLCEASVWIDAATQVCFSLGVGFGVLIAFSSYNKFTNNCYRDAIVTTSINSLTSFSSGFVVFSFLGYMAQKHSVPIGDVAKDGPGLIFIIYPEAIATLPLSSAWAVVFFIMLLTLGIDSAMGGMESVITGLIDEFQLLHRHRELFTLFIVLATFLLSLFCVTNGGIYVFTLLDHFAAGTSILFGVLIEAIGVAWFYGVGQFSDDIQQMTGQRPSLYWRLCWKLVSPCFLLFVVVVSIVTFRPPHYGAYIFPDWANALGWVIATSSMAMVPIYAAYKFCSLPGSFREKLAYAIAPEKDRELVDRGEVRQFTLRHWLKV
Series [5] deals with Sodium-dependent noradrenaline transporter (Homo sapiens, UniProt P23975).
Chain of Sodium-dependent noradrenaline transporter (P23975 whole entry): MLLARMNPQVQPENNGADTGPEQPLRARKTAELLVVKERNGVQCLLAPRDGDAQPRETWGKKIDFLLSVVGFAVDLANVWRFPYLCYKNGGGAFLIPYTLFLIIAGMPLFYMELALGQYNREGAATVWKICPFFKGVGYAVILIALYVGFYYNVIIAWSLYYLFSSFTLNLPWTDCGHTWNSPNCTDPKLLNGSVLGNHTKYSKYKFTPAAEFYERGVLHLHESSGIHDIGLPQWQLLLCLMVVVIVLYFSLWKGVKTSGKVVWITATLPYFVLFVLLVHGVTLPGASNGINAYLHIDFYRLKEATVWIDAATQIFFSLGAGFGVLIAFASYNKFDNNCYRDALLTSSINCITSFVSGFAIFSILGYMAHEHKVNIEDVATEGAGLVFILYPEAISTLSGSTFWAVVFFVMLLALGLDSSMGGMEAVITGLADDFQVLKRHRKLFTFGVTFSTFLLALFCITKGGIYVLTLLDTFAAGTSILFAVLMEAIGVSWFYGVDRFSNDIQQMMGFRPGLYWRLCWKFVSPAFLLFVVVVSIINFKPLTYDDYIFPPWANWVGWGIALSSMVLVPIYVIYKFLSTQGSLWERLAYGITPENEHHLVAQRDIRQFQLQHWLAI
The next series deals with Cytochrome P450 2D6 (Homo sapiens, UniProt P10635). The experiment in a line: Inhibition of CYP2D6. Type of series: ADME.
Chain of Cytochrome P450 2D6 (P10635 whole entry): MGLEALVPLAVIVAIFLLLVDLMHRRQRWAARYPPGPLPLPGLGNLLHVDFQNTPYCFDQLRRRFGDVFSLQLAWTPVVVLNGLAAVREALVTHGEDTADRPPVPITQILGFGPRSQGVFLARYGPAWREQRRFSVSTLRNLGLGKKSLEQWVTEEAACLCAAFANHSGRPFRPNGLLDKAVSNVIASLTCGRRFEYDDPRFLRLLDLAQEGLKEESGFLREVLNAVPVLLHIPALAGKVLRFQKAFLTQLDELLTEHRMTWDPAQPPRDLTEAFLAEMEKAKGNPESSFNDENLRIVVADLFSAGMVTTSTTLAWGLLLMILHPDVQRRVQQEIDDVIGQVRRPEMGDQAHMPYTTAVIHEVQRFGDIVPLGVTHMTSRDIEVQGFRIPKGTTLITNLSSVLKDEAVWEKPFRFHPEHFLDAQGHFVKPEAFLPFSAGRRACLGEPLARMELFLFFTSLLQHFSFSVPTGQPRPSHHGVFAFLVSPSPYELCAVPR
The next series deals with Cytochrome P450 3A4 (Homo sapiens, UniProt P08684). The experiment in a line: Inhibition of CYP3A4. The format is ADME.
Chain of Cytochrome P450 3A4 (P08684 whole entry): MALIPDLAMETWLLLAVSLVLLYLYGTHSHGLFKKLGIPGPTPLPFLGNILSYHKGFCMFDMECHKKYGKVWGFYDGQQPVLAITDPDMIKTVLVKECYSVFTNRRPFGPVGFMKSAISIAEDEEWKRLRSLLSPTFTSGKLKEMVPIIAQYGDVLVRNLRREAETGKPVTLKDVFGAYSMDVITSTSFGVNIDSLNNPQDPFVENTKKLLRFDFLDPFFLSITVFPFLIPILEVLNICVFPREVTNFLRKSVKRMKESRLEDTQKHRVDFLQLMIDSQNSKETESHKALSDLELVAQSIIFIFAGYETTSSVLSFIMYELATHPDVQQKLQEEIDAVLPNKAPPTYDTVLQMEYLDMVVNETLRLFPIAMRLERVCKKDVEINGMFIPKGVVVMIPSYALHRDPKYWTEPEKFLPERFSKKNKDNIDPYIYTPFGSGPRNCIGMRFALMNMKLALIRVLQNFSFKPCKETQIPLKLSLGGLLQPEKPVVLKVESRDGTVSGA
Another series deals with Cytochrome P450 2C19 (Homo sapiens, UniProt P33261). The experiment in a line: Inhibition of CYP2C19. Type of series: ADME.
Chain of Cytochrome P450 2C19 (P33261 whole entry): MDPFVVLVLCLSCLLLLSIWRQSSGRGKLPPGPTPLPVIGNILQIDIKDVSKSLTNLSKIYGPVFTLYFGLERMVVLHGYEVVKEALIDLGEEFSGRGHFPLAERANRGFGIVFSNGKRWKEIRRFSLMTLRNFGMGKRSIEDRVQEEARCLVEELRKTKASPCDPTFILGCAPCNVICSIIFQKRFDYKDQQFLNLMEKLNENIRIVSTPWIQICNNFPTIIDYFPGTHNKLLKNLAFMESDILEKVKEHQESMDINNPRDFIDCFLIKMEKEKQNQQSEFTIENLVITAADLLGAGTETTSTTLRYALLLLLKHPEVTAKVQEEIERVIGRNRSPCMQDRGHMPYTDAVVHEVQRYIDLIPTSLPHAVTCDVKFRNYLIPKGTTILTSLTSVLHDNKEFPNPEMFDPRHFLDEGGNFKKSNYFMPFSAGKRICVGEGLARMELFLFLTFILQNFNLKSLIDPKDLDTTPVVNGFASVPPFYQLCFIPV
Series [6] can be described thus: Inhibition of CYP1A. Type of series: ADME.
Another series addresses Cytochrome P450 2C9 (Homo sapiens, UniProt P11712). Description: Inhibition of CYP2C9. The format is ADME.
Series [7] relates to Mus musculus. The experiment in a line: Antidepressant activity in mouse assessed as reduction in immobility duration pretreated 30 mins before at 30 mg/kg, po by tail suspension test. Type of series: functional. Further details: scale not given: the % may be the effect or the level left.
Series [8] relates to Mus musculus. The experiment in a line: Antidepressant activity in mouse assessed as reduction in immobility duration pretreated 30 mins before at 100 mg/kg, po by tail suspension test. The format is functional. Further details: scale not given: the % may be the effect or the level left.
Series [9] has as its target T1, Voltage-gated inwardly rectifying potassium channel KCNH2 (Homo sapiens, UniProt Q12809).
Series [10] has as its system Mus musculus. Description: Antidepressant activity in po dosed mouse assessed as reduction of immobility duration measured by tail suspension test. The format is functional, organism-based.
Series [11] concerns Mus musculus. Description: Antidepressant activity in mouse assessed as reduction of immobility duration measured at first 5 mins time point at 10 or 30 mg/kg, po by tail suspension test. The format is functional, organism-based. Set-up: dose 30 mg/kg.
The subject of series [12] is Plasma. Description: Drug level in mouse plasma at 3 mg/kg, po. The format is functional, organism-based. Further details: dose 3 mg/kg.
Series [13] deals with Plasma. The experiment in a line: Drug level in mouse plasma at 10 mg/kg, po. Further details: dose 10 mg/kg. The format is functional, organism-based.
The test system of series [14] is Plasma. Description: Drug level in mouse plasma at 30 mg/kg, po. Further details: dose 30 mg/kg. Type of series: functional, organism-based.
The subject of series [15] is Brain. Description: Drug level in mouse brain at 3 mg/kg, po. The format is functional, organism-based. Further details: dose 3 mg/kg.
Series [16] deals with Brain. The experiment in a line: Drug level in mouse brain at 10 mg/kg, po. Type of series: functional, organism-based. Set-up: dose 10 mg/kg.
The subject of series [17] is Brain. Description: Drug level in mouse brain at 30 mg/kg, po. Further details: dose 30 mg/kg. The format is functional, organism-based.
For a further series, the system named is Liver microsomes. The description is as §1. Type of series: ADME, Microsome. The settings on record: microsomes.
The target of series [18] is T1, Voltage-gated inwardly rectifying potassium channel KCNH2. The source holds these as a separate data set.
The subject of series [19] is Mus musculus. The experiment in a line: Antidepressant activity in mouse assessed as reduction in immobility duration pretreated 30 mins before at 10 mg/kg, po by tail suspension test. Type of series: functional. Set-up: scale not given: the % may be the effect or the level left.

The source made the active and inactive calls.

T1 sequence (Q12809 whole entry): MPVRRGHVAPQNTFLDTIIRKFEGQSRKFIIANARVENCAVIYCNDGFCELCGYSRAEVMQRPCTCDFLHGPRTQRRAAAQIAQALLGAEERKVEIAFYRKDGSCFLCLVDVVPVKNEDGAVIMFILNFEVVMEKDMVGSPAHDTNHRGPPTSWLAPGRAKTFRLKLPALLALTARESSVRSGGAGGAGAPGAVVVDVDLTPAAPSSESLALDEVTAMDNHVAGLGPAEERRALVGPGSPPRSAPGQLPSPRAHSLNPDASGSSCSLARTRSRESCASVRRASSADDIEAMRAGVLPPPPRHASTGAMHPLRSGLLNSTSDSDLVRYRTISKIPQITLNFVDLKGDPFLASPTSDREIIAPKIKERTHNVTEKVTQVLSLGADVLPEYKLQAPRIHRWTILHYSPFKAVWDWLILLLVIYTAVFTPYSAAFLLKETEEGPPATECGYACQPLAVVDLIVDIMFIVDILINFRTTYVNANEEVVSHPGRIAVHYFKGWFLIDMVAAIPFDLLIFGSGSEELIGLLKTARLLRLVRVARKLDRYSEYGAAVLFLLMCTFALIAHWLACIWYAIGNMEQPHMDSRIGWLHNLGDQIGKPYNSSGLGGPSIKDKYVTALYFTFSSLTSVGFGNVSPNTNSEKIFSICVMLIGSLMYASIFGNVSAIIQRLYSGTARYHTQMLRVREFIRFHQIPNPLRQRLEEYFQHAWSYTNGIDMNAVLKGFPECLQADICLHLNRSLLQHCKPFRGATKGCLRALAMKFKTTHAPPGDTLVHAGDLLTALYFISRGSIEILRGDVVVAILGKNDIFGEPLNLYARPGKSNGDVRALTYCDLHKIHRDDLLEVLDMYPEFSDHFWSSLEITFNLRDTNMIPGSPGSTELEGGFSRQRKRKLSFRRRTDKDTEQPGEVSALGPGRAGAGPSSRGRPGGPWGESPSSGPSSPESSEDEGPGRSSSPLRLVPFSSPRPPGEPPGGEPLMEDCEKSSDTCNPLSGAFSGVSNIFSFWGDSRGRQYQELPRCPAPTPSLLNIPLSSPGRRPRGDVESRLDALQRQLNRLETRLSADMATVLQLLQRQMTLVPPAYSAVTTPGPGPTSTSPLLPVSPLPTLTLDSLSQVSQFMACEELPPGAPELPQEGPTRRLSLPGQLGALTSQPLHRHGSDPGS
Chain of Cytochrome P450 2C9 (P11712 whole entry): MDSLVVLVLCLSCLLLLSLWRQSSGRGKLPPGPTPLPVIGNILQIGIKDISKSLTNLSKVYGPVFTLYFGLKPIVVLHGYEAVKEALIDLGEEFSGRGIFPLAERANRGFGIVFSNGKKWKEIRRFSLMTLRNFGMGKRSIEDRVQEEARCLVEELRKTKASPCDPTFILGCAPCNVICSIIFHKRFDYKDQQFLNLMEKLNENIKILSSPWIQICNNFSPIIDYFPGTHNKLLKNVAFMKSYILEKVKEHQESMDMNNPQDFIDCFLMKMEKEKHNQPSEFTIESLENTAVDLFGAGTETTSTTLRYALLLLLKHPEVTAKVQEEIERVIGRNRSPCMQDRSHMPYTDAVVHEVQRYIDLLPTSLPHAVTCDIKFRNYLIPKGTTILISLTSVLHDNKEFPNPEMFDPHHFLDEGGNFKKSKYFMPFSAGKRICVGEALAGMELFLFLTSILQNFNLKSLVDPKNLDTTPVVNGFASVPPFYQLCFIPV

In general, half-life refers to the time needed for the level to fall by half in the phase considered. As for `CC(N)C1(c2cccc3ccccc23)CCCCC1` (configuration not stated), the half-life in series [1] was greater than 300 min; in series [2], 80 min.
The term IC50 denotes the concentration that gives 50% inhibition. In series [3], `CC(N)C1(c2ccc(OC(F)(F)F)cc2)CCCCC1` (configuration not stated) registered a 50% inhibitory concentration (IC50) of 0.11 µM. In addition, the half-life in series [1] is greater than 300 min; in series [2] it was 100 min.
For `CC(N)C1(c2ccc(OC(C)(C)C)cc2)CCCCC1` (configuration not stated), the figures for the IC50 in series [3], in [4] and in series [5] were 7.1 µM, 1.52 µM and 5 µM, respectively.
Consider `CC(N)C1(c2cccs2)CCCCC1` (configuration not stated), for which the half-life in series [1] came out at 152 min; in series [2], 137 min.
Regarding `CC(N)C1(c2ccc(-c3ccccc3)cc2)CCCCC1` (configuration not stated), the results for the half-life in series [1] and in series [2] were 248 min and 40 min, respectively.
In the case of `CC(N(C)C)C1(c2ccc(Cl)c(Cl)c2)CCCCC1.Cl` (configuration not stated), the IC50 is greater than 25 µM on Cytochrome P450 2D6; greater than 25 µM at Cytochrome P450 3A4; greater than 25 µM against Cytochrome P450 2C19; greater than 25 µM in series [6]; greater than 25 µM against Cytochrome P450 2C9; 40 µM in [9]. In addition, the Activity was 39% in the series with Mus musculus [7] and 27% in the series on Mus musculus [8].
For `CC(N(C)C)C1(c2ccc(Cl)c(Cl)c2)CCCCC1` (configuration not stated), the Activity entry with Mus musculus [10] was “Dose-dependent effect”. The outcome in the series with Mus musculus [11] was inactive. The Cp in the series on Plasma [12] was determined as 2 ng/mL; with Plasma [13], 12 ng/mL; in the series on Plasma [14], 103 ng/mL. In addition, the Drug uptake with Brain [15] stood at 19 ng/g; in the series on Brain [16], 114 ng/g; with Brain [17], 845 ng/g.
`CC(N)C1(c2ccc(Cl)c(Cl)c2)CCCCC1` (racemic) showed a half-life in series [1] greater than 300 min. For the same compound, the t1/2 in series [2] turned out to be 163 min.
For `CCC(N)C1(c2ccc(Cl)c(Cl)c2)CCCCC1` (racemic), the half-life came to 96 min in series [1] and 56 min in [2].
For `CC(C)CC(N)C1(c2ccc(Cl)c(Cl)c2)CCCCC1` (racemic), the half-life in series [1] amounted to 83 min; in series [2] it was 59 min.
Consider `CNC(C)C1(c2ccc(Cl)c(Cl)c2)CCCCC1` (racemic), for which the values for the t1/2 (with Liver microsomes; in series [2]) were 281 min and 154 min, respectively.
Take `CNC(CC(C)C)C1(c2ccc(Cl)c(Cl)c2)CCCCC1` (racemic): the half-life in [1] is 23 min; in series [2], 18 min.
On to `CC(N(C)C)C1(c2ccc(Cl)c(Cl)c2)CCCCC1` (racemic), for which the half-life was determined as 23 min in series [1] and 22 min in [2].
As to `CC(C)CC(N(C)C)C1(c2ccc(Cl)c(Cl)c2)CCCCC1` (racemic), the half-life in series [1] was 18 min; in series [2] it was greater than 300 min.
For `CC(N)C1(c2ccc3ccccc3c2)CCCCC1` (racemic), the results for the half-life in series [1] and in [2] were 140 min and 16 min, respectively.
Take `CC(N(C)C)C1(c2ccc3ccccc3c2)CCCCC1` (racemic): the half-life in series [1] is 33 min; in series [2], 22 min.
Take `CNC(C)C1(c2ccc(Cl)c(Cl)c2)CCCCC1` (single isomer, unassigned): the t1/2 amounted to 71 min in the series on Liver microsomes and 54 min in series [2].
For the compound `CC(N(C)C)C1(c2ccc(Cl)c(Cl)c2)CCCCC1` (single isomer, unassigned), the t1/2 in series [2] was 28 min.
Regarding `CC(N)C1(c2ccc3ccccc3c2)CCCCC1` (single isomer, unassigned), the t1/2 amounted to 150 min with Liver microsomes and 11 min in [2].
Turning to `CC(N)C1(c2ccc(Cl)c(Cl)c2)CCCCC1` (single isomer, unassigned; enantiomer 1), the t1/2 in series [2] is 84 min.
Turning to `CC(N(C)C)C1(c2ccc(Cl)c(Cl)c2)CCCCC1` (single isomer, unassigned; enantiomer 1), the t1/2 in the series with Liver microsomes is 28 min; in [2], 25 min. In addition, in series [18], it took 40 µM to reach half-maximal inhibition (IC50).
In the case of `CC(N)C1(c2ccc3ccccc3c2)CCCCC1` (single isomer, unassigned; enantiomer 2), the t1/2 in the series on Liver microsomes is on record as 164 min; in series [2] it was 14 min.
Regarding `CC(N(C)C)C1(c2ccc3ccccc3c2)CCCCC1` (single isomer, unassigned; enantiomer 2), in series [2], the t1/2 is given as 23 min.
For the compound `CNC(C)C1(c2ccc3ccccc3c2)CCCCC1` (single isomer, unassigned; enantiomer 2), the t1/2 with Liver microsomes was found to be 101 min; in series [2], 11 min.
With `CNC(C)C1(c2ccc(Cl)c(Cl)c2)CCCCC1.Cl` (single isomer, unassigned; enantiomer 2), the values for the IC50 (at Cytochrome P450 2D6; in series [6]) were 8.5 µM and greater than 25 µM, respectively. Also, the Activity in the series on Mus musculus [19] stood at 13%; in the series on Mus musculus [7], 3.3%; in the series on Mus musculus [8], 25%.
As for `CNC(C)C1(c2ccc(Cl)c(Cl)c2)CCCCC1` (single isomer, unassigned; enantiomer 2), in the series with Mus musculus [10], the Activity entry is “Dose-dependent effect”. The result in the series with Mus musculus [11] was inactive. For the same compound, the values for the Cp with Plasma [12], in the series with Plasma [13] and in the series on Plasma [14] were 9 ng/mL, 44 ng/mL and 544 ng/mL, respectively. The Drug uptake was 145 ng/g in the series on Brain [15], 782 ng/g in the series on Brain [16] and 7070 ng/g in the series on Brain [17].
Take `CC(N(C)C)C1(c2ccc3ccccc3c2)CCCCC1` (single isomer, unassigned; form 1): the t1/2 in the series on Liver microsomes amounted to 32 min; in [2], 19 min. In series [18], this compound displayed an IC50 of 4.3 µM.
As to `CC(N(C)C)C1(c2ccc3ccccc3c2)CCCCC1.Cl` (single isomer, unassigned; form 2), the half-maximal inhibitory concentration (IC50) against Cytochrome P450 2D6 was greater than 5 µM; on Cytochrome P450 3A4, greater than 5 µM; at Cytochrome P450 2C19, greater than 5 µM; in series [6] it was greater than 25 µM; against Cytochrome P450 2C9 it was greater than 5 µM; in series [9] it was 4.3 µM. The Activity in the series with Mus musculus [19] is 14%; in the series on Mus musculus [7], 30%; in the series on Mus musculus [8], 37%.
For `CC(N(C)C)C1(c2ccc3ccccc3c2)CCCCC1` (single isomer, unassigned; form 2), the Activity entry with Mus musculus [10] was “Dose-dependent effect”. Moreover, the outcome in the series on Mus musculus [11] was inactive. For the same compound, the Cp worked out at 2 ng/mL in the series with Plasma [12], 13 ng/mL in the series with Plasma [13] and 68 ng/mL in the series with Plasma [14]. For the same compound, the Drug uptake was 25 ng/g with Brain [15], 130 ng/g with Brain [16] and 564 ng/g in the series on Brain [17].
Consider `CNC(C)C1(c2ccc(Cl)c(Cl)c2)CCCCC1` (stereo in doubt; 24), for which the t1/2 in the series on Liver microsomes is given as 53 min; in [2], 52 min.
For the compound `CNC(C)C1(c2ccc3ccccc3c2)CCCCC1` (stereo in doubt; 29), the half-life in series [1] was 90 min; in series [2] it was 12 min.
